Here are results for two compounds from patent US20100215632A1, “BIOMARKERS OF SIRTUIN ACTIVITY AND METHODS OF USE THEREOF” (Sirtris Pharmaceuticals, Inc., priority 2007, published 2010).

Molecules are shown by their SMILES.

The test system of test [1] is FGF21. Briefly: FGF21 expression in liver of diet-induced obesity mice (microarray). The test is classed as in vivo, mouse. The note with it: 3 day liver, oral once per day; resveratrol 1000 mg/kg, Compound 1 100 mg/kg. The protocol: (§1) As with Example 2, the diet-induced obesity (D10) model was used. 51 C57BL/6 mice are started on a 60% kcal high fat diet. Mice are weighed once a week for approximately 7 weeks on the high fat diet until the average body weight of the D10 mice is 40 grams. The study is divided into 3 groups of […] mice per group with mean average body weight/cage. Animals are dosed orally once per day as follows: Resveratrol at 1000 mg/kg in 2% HPMC/0.2% DOSS, Compound 1 at 100 mg/kg in 2% HPMC/0.2% DOSS and vehicle control animals 2% HPMC/0.2% DOSS. Concentration of compound is adjusted to proper dose according to the mean weight for each group weekly. Mice are typically dosed in the a.m. and are only dosed in the p.m. on days following a 16 hour fast. On day 3 of dosing, liver tissue is collected from the mice 1 hour post dose.
The liver is isolated as in Example 2. Total RNA from the liver sample is extracted with standard techniques (e.g. PureLink Micro-to-Midi Total RNA Purification System, Invitrogen cat. #12183-018).
Expression of multiple genes was determine by microarray as in Example 4.

The test system of test [2] is liver. Briefly: Overall pattern of change in gene expression in 3 day liver of diet-induced obesity mice (gene chip). In kind it is in vivo, mouse. As to conditions: 1000 mg/kg oral once per day.
From the text: A mouse model of diet induced obesity was used to identify sirtuin biomarkers in mice following dosing with two chemically unrelated sirtuin activators. Obesity and type II diabetes are being intensively studied in animal models, particularly the mouse. One such model is commonly referred to as the diet-induced obesity (DIO) model. Typically, C57BL/6 males are fed a high fat diet for 8 to 12 weeks and, as a result, become obese, mildly to moderately hyperglycemic, and glucose intolerant. These mice are then used to study the genetic and physiological mechanisms of obesity and type II diabetes.
as §1, with “51” for “As with Example 2, the diet-induced obesity (D10) model was used. 51”, “DIO” for “D10”, “Each group is split up into 3 sub-groups for a 3, 16 and 42” for “On”, “collection time point.” for “3 of dosing, liver tissue is collected from the mice 1 hour post dose.”
Once dosing starts data collections are as follow. Day 3: collect tissues, blood and glucose from 6 mice from each group 1 hour post dose. Also take fed glucose from remaining groups. Day 13: Intraperitoneal glucose tolerance test (IPGTT). Day 16: collect tissues, blood and glucose from 6 mice from each group 1 hour post dose. Also take fed glucose from remaining groups. Day 28: Fasted glucose. […]
Total RNA isolated from either Example 2 above (mouse tissues following in vivo treatment with either Compound 1 or resveratrol) or Example 3 above (human WBC following ex vivo treatment with either Compound 2 or resveratrol) was analyzed using an Affymetrix GeneChip specific to either the mouse or human genome. […]

Turning to `O=C(Nc1ccccc1-c1cn2c(CN3CCNCC3)csc2n1)c1cnc2ccccc2n1` [Compound 1], the “FGF21 mRNA levels versus control mice” value in test [1] is “markedly higher”.
As to `Oc1ccc(C=Cc2cc(O)cc(O)c2)cc1` [resveratrol, 3,5,4′-trihydroxystilbene], in test [2], the “activity of PGC1a and PPAR family members” value is “increased activity of PGC1a and PPAR family members”; the “activity of hepatic transcription factors involved in glucose homeostasis and the stress response pathway” value is “increased activity of hepatic transcription factors”; the “inflammatory signaling (pattern of gene expression)” value was “decreased inflammatory signaling”. Moreover, in test [1], the “FGF21 mRNA levels versus control mice” value is “markedly higher”.
